# The source made the active and inactive calls. No cut-off for these calls is given here.
# Test system: MCF7
# Assay: Antiproliferative activity against human MCF7 cells assessed as inhibition of cell growth incubated for 48 hrs by XTT assay
# Assay type: functional, cell-based
# Conditions: MCF7, 48 h
row,Compound,IC50
1,Cc1[nH]c2c(c1-c1nnc(-c3ccccc3Cl)[se]1)Cc1ccccc1-2,0.091 µM
2,Cc1[nH]c2c(c1-c1nnc(-c3cccc(Cl)c3)s1)Cc1ccccc1-2,> 10 µM
3,Cc1[nH]c2c(c1-c1nnc(-c3ccc(Cl)c(Cl)c3)s1)Cc1ccccc1-2,> 10 µM
4,COc1ccc(-c2nnc(-c3c(C)[nH]c4c3Cc3ccccc3-4)[se]2)cc1,> 10 µM

# Test system: HeLa
# Assay: Antiproliferative activity against human HeLa cells assessed as inhibition of cell growth incubated for 48 hrs by XTT assay
# Assay type: functional, cell-based
# Conditions: not given
row,Compound,IC50
1,Cc1[nH]c2c(c1-c1nnc(-c3ccccc3Cl)[se]1)Cc1ccccc1-2,0.005 µM
2,Cc1[nH]c2c(c1-c1nnc(-c3cccc(Cl)c3)s1)Cc1ccccc1-2,> 10 µM
3,Cc1[nH]c2c(c1-c1nnc(-c3ccc(Cl)c(Cl)c3)s1)Cc1ccccc1-2,> 10 µM
4,COc1ccc(-c2nnc(-c3c(C)[nH]c4c3Cc3ccccc3-4)[se]2)cc1,> 10 µM

# Test system: PC-3
# Assay: Antiproliferative activity against human PC-3 cells assessed as inhibition of cell growth incubated for 48 hrs by XTT assay
# Assay type: functional, cell-based
# Conditions: PC-3, 48 h
row,Compound,IC50
1,Cc1[nH]c2c(c1-c1nnc(-c3ccccc3Cl)[se]1)Cc1ccccc1-2,0.067 µM
2,Cc1[nH]c2c(c1-c1nnc(-c3cccc(Cl)c3)s1)Cc1ccccc1-2,> 10 µM
3,Cc1[nH]c2c(c1-c1nnc(-c3ccc(Cl)c(Cl)c3)s1)Cc1ccccc1-2,> 10 µM
4,COc1ccc(-c2nnc(-c3c(C)[nH]c4c3Cc3ccccc3-4)[se]2)cc1,> 10 µM

# Test system: HFF-1
# Assay: Cytotoxicity against HFF-1 cells assessed as reduction in cell viability at 1 to 2 uM incubated for 48 hrs by XTT assay
# Assay type: toxicity, cell-based
# Conditions: human, hff-1, 48 h, dose 1-2 µM
row,Compound,Activity
1,Cc1[nH]c2c(c1-c1nnc(-c3ccccc3Cl)[se]1)Cc1ccccc1-2,Non-Toxic

# Test system: NB1
# Assay: Cytotoxicity against human NB1 cells immortalized with hTERT plasmid assessed as reduction in cell viability at 1 to 2 uM incubated for 48 hrs by XTT assay
# Assay type: toxicity, cell-based
# Conditions: nb1, 48 h, dose 1-2 µM
row,Compound,Activity
1,Cc1[nH]c2c(c1-c1nnc(-c3ccccc3Cl)[se]1)Cc1ccccc1-2,Non-Toxic

# Test system: HeLa
# Assay: Inhibition of colony formation in human HeLa cells at IC50 incubated for 2 weeks with culture medium replacement for every 3 days by crystal violet staining based analysis
# Assay type: functional, cell-based
# Conditions: not given
row,Compound,inhibition
1,Cc1[nH]c2c(c1-c1nnc(-c3ccccc3Cl)[se]1)Cc1ccccc1-2,Active

# Test system: PC-3
# Assay: Inhibition of colony formation in human PC-3 cells at IC50 incubated for 2 weeks with culture medium replacement for every 3 days by crystal violet staining based analysis
# Assay type: functional, cell-based
# Conditions: not given
row,Compound,inhibition
1,Cc1[nH]c2c(c1-c1nnc(-c3ccccc3Cl)[se]1)Cc1ccccc1-2,Active

# Test system: HeLa
# Assay: Induction of cell cycle arrest in human HeLa cells assessed as accumulation of cells at G1 phase at 1 uM incubated for 6 hrs by FACS flow cytometry analysis (reference value: 69.94 +/- 1.71 %)
# Assay type: functional
# Conditions: not given
row,Compound,Activity
1,Cc1[nH]c2c(c1-c1nnc(-c3ccccc3Cl)[se]1)Cc1ccccc1-2,41.62%

# Test system: HeLa
# Assay: Induction of cell cycle arrest in human HeLa cells assessed as accumulation of cells at S phase at 1 uM incubated for 6 hrs by FACS flow cytometry analysis (reference value: 17.41 +/- 0.96 %)
# Assay type: functional
# Conditions: not given
row,Compound,Activity
1,Cc1[nH]c2c(c1-c1nnc(-c3ccccc3Cl)[se]1)Cc1ccccc1-2,35.29%

# Test system: HeLa
# Assay: Induction of cell cycle arrest in human HeLa cells assessed as accumulation of cells at G2/M phase at 1 uM incubated for 6 hrs by FACS flow cytometry analysis (reference value: 12.66 +/- 0.88 %)
# Assay type: functional
# Conditions: not given
row,Compound,Activity
1,Cc1[nH]c2c(c1-c1nnc(-c3ccccc3Cl)[se]1)Cc1ccccc1-2,23.09%

# Test system: HeLa
# Assay: Induction of cell cycle arrest in human HeLa cells assessed as accumulation of cells at G1 phase at 1 uM incubated for 18 hrs by FACS flow cytometry analysis (reference value: 69.94 +/- 1.25 %)
# Assay type: functional
# Conditions: not given
row,Compound,Activity
1,Cc1[nH]c2c(c1-c1nnc(-c3ccccc3Cl)[se]1)Cc1ccccc1-2,2.03%

# Test system: HeLa
# Assay: Induction of cell cycle arrest in human HeLa cells assessed as accumulation of cells at S phase at 1 uM incubated for 18 hrs by FACS flow cytometry analysis (reference value: 17.41 +/- 1.16 %)
# Assay type: functional
# Conditions: not given
row,Compound,Activity
1,Cc1[nH]c2c(c1-c1nnc(-c3ccccc3Cl)[se]1)Cc1ccccc1-2,12.5%

# Test system: HeLa
# Assay: Induction of cell cycle arrest in human HeLa cells assessed as accumulation of cells at G2/M phase at 1 uM incubated for 18 hrs by FACS flow cytometry analysis (reference value: 12.66 +/- 0.92 %)
# Assay type: functional
# Conditions: not given
row,Compound,Activity
1,Cc1[nH]c2c(c1-c1nnc(-c3ccccc3Cl)[se]1)Cc1ccccc1-2,85.47%

# Test system: PC-3
# Assay: Induction of cell cycle arrest in human PC-3 cells assessed as accumulation of cells at G1 phase at 1 uM incubated for 6 hrs by FACS flow cytometry analysis (reference value: 44.2 +/- 2.21 %)
# Assay type: functional
# Conditions: not given
row,Compound,Activity
1,Cc1[nH]c2c(c1-c1nnc(-c3ccccc3Cl)[se]1)Cc1ccccc1-2,13.15%

# Test system: PC-3
# Assay: Induction of cell cycle arrest in human PC-3 cells assessed as accumulation of cells at S phase at 1 uM incubated for 6 hrs by FACS flow cytometry analysis (reference value: 35.06 +/- 1.85 %)
# Assay type: functional
# Conditions: not given
row,Compound,Activity
1,Cc1[nH]c2c(c1-c1nnc(-c3ccccc3Cl)[se]1)Cc1ccccc1-2,55.33%

# Test system: PC-3
# Assay: Induction of cell cycle arrest in human PC-3 cells assessed as accumulation of cells at G2/M phase at 1 uM incubated for 6 hrs by FACS flow cytometry analysis (reference value: 20.74 +/- 1.93 %)
# Assay type: functional
# Conditions: not given
row,Compound,Activity
1,Cc1[nH]c2c(c1-c1nnc(-c3ccccc3Cl)[se]1)Cc1ccccc1-2,31.52%

# Test system: PC-3
# Assay: Induction of cell cycle arrest in human PC-3 cells assessed as accumulation of cells at G1 phase at 1 uM incubated for 12 hrs by FACS flow cytometry analysis (reference value: 44.2 +/- 2.01 %)
# Assay type: functional
# Conditions: not given
row,Compound,Activity
1,Cc1[nH]c2c(c1-c1nnc(-c3ccccc3Cl)[se]1)Cc1ccccc1-2,0.64%

# Test system: PC-3
# Assay: Induction of cell cycle arrest in human PC-3 cells assessed as accumulation of cells at S phase at 1 uM incubated for 12 hrs by FACS flow cytometry analysis (reference value: 35.06 +/- 1.36 %)
# Assay type: functional
# Conditions: not given
row,Compound,Activity
1,Cc1[nH]c2c(c1-c1nnc(-c3ccccc3Cl)[se]1)Cc1ccccc1-2,5.7%

# Test system: PC-3
# Assay: Induction of cell cycle arrest in human PC-3 cells assessed as accumulation of cells at G2/M phase at 1 uM incubated for 12 hrs by FACS flow cytometry analysis (reference value: 20.74 +/- 1.95 %)
# Assay type: functional
# Conditions: not given
row,Compound,Activity
1,Cc1[nH]c2c(c1-c1nnc(-c3ccccc3Cl)[se]1)Cc1ccccc1-2,93.66%

# Target: T1, Tubulin (Homo sapiens) (UniProt P68371+Q9H4B7+P0DPH7+P68366+Q13509+Q71U36+P04350+Q3ZCM7+P07437+P68363+Q9BQE3+Q6PEY2+Q13885+Q9BVA1+Q9BUF5)
# Assay: Inhibition of tubulin polymerization in human HeLa cells assessed as irregular cell morphology at 0.5 uM incubated for 6 hrs by DAPI staining based fluorescence microscopic analysis
# Conditions: not given
row,Compound,inhibition
1,Cc1[nH]c2c(c1-c1nnc(-c3ccccc3Cl)[se]1)Cc1ccccc1-2,Active

# Target: T1, Tubulin (Homo sapiens)
# Assay: Inhibition of tubulin polymerization in human HeLa cells assessed as aberrations in mitotic spindle and nucleus at 0.5 uM incubated for 6 hrs by DAPI staining based fluorescence microscopic analysis
# Assay type: cell-based
# Conditions: not given
row,Compound,inhibition
1,Cc1[nH]c2c(c1-c1nnc(-c3ccccc3Cl)[se]1)Cc1ccccc1-2,Active

# Target: T1, Tubulin (Homo sapiens)
# Assay: Inhibition of tubulin polymerization in human HeLa cells assessed as abnormal microtubule network at 0.5 uM incubated for 6 hrs by DAPI staining based fluorescence microscopic analysis
# Assay type: cell-based
# Conditions: not given
row,Compound,inhibition
1,Cc1[nH]c2c(c1-c1nnc(-c3ccccc3Cl)[se]1)Cc1ccccc1-2,Active

# Test system: HeLa
# Assay: Induction of apoptosis in human HeLa cells assessed as viable cells at 1 uM incubated for 24 hrs by Annexin V-FITC/7-AAD staining based flow cytometric analysis (reference value: 85.6 +/- 1.061%)
# Assay type: functional
# Conditions: read-out: Activity
row,Compound,viability at 1 µM
1,Cc1[nH]c2c(c1-c1nnc(-c3ccccc3Cl)[se]1)Cc1ccccc1-2,24.6%

# Test system: HeLa
# Assay: Induction of apoptosis in human HeLa cells assessed as early apoptotic cells at 1 uM incubated for 24 hrs by Annexin V-FITC/7-AAD staining based flow cytometric analysis (reference value: 2.7 +/- 0.424 %)
# Assay type: functional
# Conditions: not given
row,Compound,Activity
1,Cc1[nH]c2c(c1-c1nnc(-c3ccccc3Cl)[se]1)Cc1ccccc1-2,11.9%

# Test system: HeLa
# Assay: Induction of apoptosis in human HeLa cells assessed as late apoptotic cells at 1 uM incubated for 24 hrs by Annexin V-FITC/7-AAD staining based flow cytometric analysis (reference value: 11.1 +/- 0.778 %)
# Assay type: functional
# Conditions: not given
row,Compound,Activity
1,Cc1[nH]c2c(c1-c1nnc(-c3ccccc3Cl)[se]1)Cc1ccccc1-2,58.2%

# Test system: HeLa
# Assay: Induction of apoptosis in human HeLa cells assessed as dead cells at 1 uM incubated for 24 hrs by Annexin V-FITC/7-AAD staining based flow cytometric analysis (reference value: 0.6 +/- 0.707 %)
# Assay type: functional
# Conditions: not given
row,Compound,Activity
1,Cc1[nH]c2c(c1-c1nnc(-c3ccccc3Cl)[se]1)Cc1ccccc1-2,5.3%
